We go through 9 compounds from PubChem BioAssay (NCI).

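Assay format: 96-well plates, 48-hour exposure. At the GI50, growth is halved. The concentration for full growth arrest is given as TGI.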

What all share (experiment): growth of human tumour cells (NCI), 48 h
In assay [1] the test system is SF-295 CNS.
Assay [2] deals with HCC-2998 colon.
Assay [3] has as its system SK-OV-3 ovarian.
In assay [4] the test system is OVCAR-8 ovarian.
For assay [5], the system named is SNB-75 CNS.
In assay [6] the test system is COLO 205 colon.
The test system of assay [7] is UACC-257 melanoma.
The test system of assay [8] is NCI-H226 lung.
Assay [9] relates to A498 renal.
Assay [10] concerns LOX IMVI melanoma.

With `CC/C=C\C[C@H](F)C/C=C1/C(=O)C=C[C@@H]1C/C=C\CCCC(=O)OC`, the GI50 is 2.24 µM in [1]; 4.1 µM in [2]; 10.5 µM in [3]; 2.05 µM in [4]; 5.64 µM in [5]; 1.22 µM in assay [6]. Moreover, the GI50 in assay [7] is 2.75 µM; in assay [8], 22.2 µM; in assay [9] it was 9.41 µM; in assay [10], 0.854 µM. Further, the TGI in assay [1] worked out at 8.3 µM; in assay [2], 10.6 µM; in assay [3], 32.1 µM; in assay [4], 12.2 µM; in assay [5], 11.7 µM; in assay [6], 2.72 µM. Also, the TGI in [7] was determined as 10.1 µM; in assay [8] it was 44.6 µM; in assay [9] it was 17.2 µM; in assay [10] it was 1.75 µM.
As for `CN(C)CCCN(CCC1CCCCC1)CCC1CCCCC1`, the GI50 in assay [1] is 1.95 µM; in assay [2] it was 0.325 µM; in assay [3], 7.68 µM; in assay [4], 3.12 µM; in assay [5] it was 1.8 µM; in assay [6], 1.48 µM. In addition, the GI50 is 0.77 µM in [7], 12.1 µM in [8], 2.87 µM in assay [9] and 1.47 µM in assay [10]. Besides, the TGI turned out to be 4.51 µM in [1]; 0.915 µM in [2]; 21.5 µM in assay [3]; 7.12 µM in assay [4]; 6.5 µM in assay [5]; 3.36 µM in [6]. The TGI stood at 2.82 µM in [7], 26.7 µM in [8], 9.61 µM in [9] and 2.91 µM in assay [10].
Consider `NC(=NCc1ccccc1)C(N=Nc1ccccc1)C(=O)NCc1ccccc1` (stereo not given), for which the GI50 is 1.9 µM in assay [1]; 11.5 µM in [2]; 20.1 µM in [3]; 3.56 µM in assay [4]; 13.2 µM in [5]; 14.8 µM in [6]. Also, the GI50 in assay [7] was 26.8 µM; in assay [8], 21.3 µM; in assay [9] it was 6.17 µM; in [10], 8.36 µM. In addition, the TGI in [1] is 5.16 µM; in assay [2], 29.9 µM; in [3], 47.7 µM; in assay [4], 15.2 µM; in [5] it was 27.7 µM; in [6], 37.2 µM. In addition, the TGI in [7] was 69.5 µM; in assay [8] it was 52.6 µM; in [9], 23 µM; in assay [10] it was 24.3 µM.
For the compound `Cc1ccc2oc(=O)cc(/C(=C3/C=CC=N3)c3ccc[nH]3)c2c1`, the GI50 is 0.215 µM in [1]; 1.15 µM in [2]; 0.264 µM in assay [3]; 0.304 µM in assay [4]; 0.335 µM in assay [5]; 1.49 µM in [6]. For the same compound, the GI50 in [7] is 0.711 µM; in assay [8], 0.753 µM; in [9], 0.269 µM; in assay [10], 0.343 µM. Moreover, the TGI was 0.667 µM in [1]; 3.12 µM in [2]; 0.815 µM in assay [3]; 1.07 µM in assay [4]; 4.46 µM in assay [5]; 3.49 µM in [6]. In addition, the TGI in [7] worked out at 4.06 µM; in assay [8], 4.58 µM; in assay [9] it was 0.92 µM; in assay [10], 1.41 µM.
As to `CN(C)CCN1C(=O)c2cccc3cc([N+](=O)[O-])cc(c23)C1=O`, the TGI in [1] amounted to 1.38 µM; in [2], 3.56 µM; in assay [3], 0.806 µM; in assay [4], 2.02 µM; in assay [5] it was 1.05 µM; in assay [6], 9.56 µM. For the same compound, the TGI in assay [7] amounted to 2.13 µM; in assay [8], 0.436 µM; in [9], 0.386 µM; in assay [10] it was 0.806 µM.
In the case of `C=C1CC2(CC(c3ccccc3Cl)OC(c3ccccc3Cl)C2)OC1=O` (stereo not given), the TGI in assay [1] came to 19.2 µM; in assay [2], 7.74 µM; in [3] it was 16.9 µM; in assay [4], 4.71 µM; in [5] it was 8.41 µM; in [6] it was 5.51 µM. Also, the TGI in assay [7] was 5.14 µM; in [8], 21.3 µM; in assay [9], 21.3 µM; in assay [10], 2.72 µM.
`COc1cc(Oc2c(C)c(Cl)c(OC)c(Cl)c2OC)c2c(c1Cl)COC2=O`: the TGI in [1], in assay [2], in [3], in assay [4], in assay [5] and in assay [6] was above 100 µM each time. Further, the TGI in assay [7], in [8], in assay [9] and in [10] was above 100 µM each time.
With `Oc1ccc(Nc2ccc3ccccc3c2)cc1`, the GI50 in [1] was 2.13 µM; in [2], 4.29 µM; in [3], 17.2 µM; in assay [4], 6.49 µM; in assay [5], 2.78 µM; in assay [6], 17.5 µM. For the same compound, the GI50 in assay [7] is 4.86 µM; in [8] it was 19 µM; in assay [9], 4.1 µM; in [10], 8.25 µM. Also, the TGI in [1] was 6.29 µM; in assay [2] it was 17.8 µM; in assay [3], above 100 µM; in assay [4] it was 56.7 µM; in assay [5], 35.9 µM; in [6] it was 35.4 µM. Besides, the TGI in [7] was determined as 34.3 µM; in assay [8], 49.5 µM; in assay [9] it was 23.2 µM; in assay [10] it was 21.9 µM.
On to `CC(C)N1CCN(c2ccncc2S(=O)(=O)N2CCCCC2)CC1`, for which the TGI in [1], in assay [2], in [3], in assay [4], in assay [5] and in assay [6] was above 100 µM throughout. Moreover, the TGI in assay [7], in assay [8], in [9] and in assay [10] was above 100 µM in each case.
